Where a name gives a salt, the structure may show the parent alone.

This assay deals with T1, WT and mutant human KCNT1 channels (Homo sapiens, UniProt Q5JUK3).
T1 sequence (Q5JUK3 1-1230): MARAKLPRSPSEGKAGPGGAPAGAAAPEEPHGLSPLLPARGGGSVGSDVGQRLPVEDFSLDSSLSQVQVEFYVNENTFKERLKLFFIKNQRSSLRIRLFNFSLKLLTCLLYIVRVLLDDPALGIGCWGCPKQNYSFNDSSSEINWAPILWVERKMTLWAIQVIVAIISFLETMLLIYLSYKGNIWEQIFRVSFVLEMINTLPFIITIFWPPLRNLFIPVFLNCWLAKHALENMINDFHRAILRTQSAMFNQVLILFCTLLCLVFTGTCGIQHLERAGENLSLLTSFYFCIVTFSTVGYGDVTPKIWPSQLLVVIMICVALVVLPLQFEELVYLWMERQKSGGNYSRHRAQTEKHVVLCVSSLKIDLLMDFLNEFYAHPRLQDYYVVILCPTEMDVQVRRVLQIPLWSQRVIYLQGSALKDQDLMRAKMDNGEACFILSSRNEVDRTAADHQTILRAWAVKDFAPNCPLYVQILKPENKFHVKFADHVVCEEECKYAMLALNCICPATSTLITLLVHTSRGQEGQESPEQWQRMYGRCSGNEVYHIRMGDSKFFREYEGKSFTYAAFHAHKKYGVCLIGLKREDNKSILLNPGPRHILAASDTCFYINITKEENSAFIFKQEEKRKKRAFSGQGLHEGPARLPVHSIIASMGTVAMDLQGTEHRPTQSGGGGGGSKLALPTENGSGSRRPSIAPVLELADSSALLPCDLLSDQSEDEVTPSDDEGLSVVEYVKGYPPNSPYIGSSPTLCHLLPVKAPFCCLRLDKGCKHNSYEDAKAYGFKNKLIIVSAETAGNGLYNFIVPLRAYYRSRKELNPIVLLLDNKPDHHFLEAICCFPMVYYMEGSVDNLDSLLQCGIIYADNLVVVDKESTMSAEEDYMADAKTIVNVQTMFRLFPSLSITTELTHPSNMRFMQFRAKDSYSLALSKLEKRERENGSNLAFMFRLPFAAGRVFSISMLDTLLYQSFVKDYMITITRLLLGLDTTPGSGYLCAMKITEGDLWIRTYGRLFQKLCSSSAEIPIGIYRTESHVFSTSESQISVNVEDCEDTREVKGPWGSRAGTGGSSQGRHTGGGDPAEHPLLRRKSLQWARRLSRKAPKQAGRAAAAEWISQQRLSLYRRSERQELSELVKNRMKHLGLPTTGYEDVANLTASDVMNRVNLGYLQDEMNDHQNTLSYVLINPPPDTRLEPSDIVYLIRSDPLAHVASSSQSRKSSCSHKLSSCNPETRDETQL
The assay can be described thus: Inside-out patch clamp, statements pooled over WT and mutant channels. The class given is cell-based. The note with it: inside-out patches; for inhibition at 0.25 µM: 250 nM. As for the experimental part:
The CHO cells were cultured in Dulbecco's modified Eagle's Medium (ThermoFisher, UK) supplemented with 10% (v/v) fetal bovine serum, 50 U/ml penicillin and 0.05 mg/ml streptomycin, and incubated at 37°C in 5% CO2 atmosphere. For whole cell recording of WT/Y796H KCNT1, CHO cells were transiently co‐transfected with concatemeric WT/Y796H and EYFP, as described previously.[29] For electrophysiological experiments, cells were plated onto borosilicate glass cover slips and used 2 to 4 days later. Human embryonic kidney 293T cells (HEK293T) were cultured in the same manner, but with medium supplemented with 2 mM L‐glutamine, and 1% (v/v) nonessential amino acids. For excised inside‐out recording of homomeric WT or mutant YFP‐tagged KCNT1, HEK293T cells plated on glass cover slips were transfected using Attractene Transfection Reagent (Qiagen, Germany) according to the manufacturer's instructions and used 2 to 3 days later.
Inside‐out patch clamp recordings were made at room temperature (23°C) from transiently transfected HEK293T cells, as described previously.[11] The pipette solution contained, in mM, 140 NaCl, 4 KCl, 2 CaCl2, 2 MgCl2, and 10 HEPES adjusted to pH 7.4 with NaOH. After achieving the inside‐out configuration, the intracellular face of the membrane was constantly perfused with a solution containing, in mM, 35 NaCl, 110 KCl, 0.2 EGTA, and 10 HEPES adjusted to pH 7.3 with KOH. Drug stock solutions of 5 to 20 mM in DMSO were first diluted in ethanol (1:10) and then in electrophysiological solution. KCNT1 currents were recorded using 2 voltage protocols, depending on the number of active channels in the patch before drug application. Macroscopic currents (number of active channels > 15) were recorded in response to 100 ms voltage ramps between −120 and 120 mV applied every 2 seconds from a holding potential of −78 mV. The average current amplitudes between 0 and 40 mV were used for the analyses and constructing the concentration‐response curves. With a lower number of active channels in the patch (3–15), current traces were recorded in response to 15‐second voltage steps to −20, 0, and 20 mV from a holding potential of −78 mV. Currents recorded at each voltage and each drug concentration were averaged over the duration of the trace and normalized to the average amplitudes of the corresponding current traces in drug‐free solution. The normalized data for all 3 voltage steps were then averaged for each drug concentration and used to build the concentration‐response curves (see Supplementary Fig S3). To determine the IC50, data were fitted with the Hill equation, as described previously.[11] Single channel data were analyzed using Ana software developed by Dr Michael Pusch (Istituto di Biofisica, Genova, Italy; http://users.ge.ibf.cnr.it/pusch/programs-mik.htm). […]

`Cc1c(O)cccc1C(=O)N[C@@H](CSc1ccccc1)[C@H](O)CN1C[C@H]2CCCC[C@H]2C[C@H]1C(=O)NC(C)(C)C` [nelfinavir mesylate]: the inhibition at 0.25 µM was in the range of 80 to 90%.
As to `O=C(OCCN1CCN(c2cccc(C(F)(F)F)c2)CC1)c1ccccc1Nc1ccnc2cc(C(F)(F)F)ccc12` [antrafenine], the inhibition at 0.25 µM lay within 80 to 90%. Moreover, the inhibition at 0.3 µM (300 nM, read-out: inhibition of single KCNT1 channels) was around 90%. Moreover, the IC50 (read-out: direct IC50 on single KCNT1 channels) is around 10 nM.

What is called inhibition is the percentage by which the read-out fell short of the control. As usually defined, the IC50 is the concentration that gives 50% inhibition.
